Source: PMC2990756, “Quantitative High-Throughput Screening Identifies 8-Hydroxyquinolines as Cell-Active Histone Demethylase Inhibitors” (PLoS ONE, 2010)
Where two headings read alike, the source gives them in different places.

Experiments:
Assay type in all cases: biochemical; call rule not given here
[1] = target: T1, formaldehyde dehydrogenase (FDH) (Pseudomonas putida, UniProt P46154); experiment: FDH coupling enzyme counterscreen
T1 construct: purchased Sigma-Aldrich
Excerpt: Dimethylsulfoxide certified ACS grade (DMSO) was from Fisher, Inc. HEPES buffer was obtained from Gibco. […] Black solid-bottom 1,536-well assay plates were from Greiner Bio-One (Monroe, NC).

JMJD2E (KDM4E) = target: T2, JMJD2E (KDM4E) (Homo sapiens, UniProt B2RXH2); experiment: qHTS fluorescence FDH-coupled JMJD2E demethylase assay
T2 construct: The catalytic domain of human JMJD2E (residues 1–337); His6 (N); made in house; host or cells: E. coli
T2 sequence (B2RXH2 1-337): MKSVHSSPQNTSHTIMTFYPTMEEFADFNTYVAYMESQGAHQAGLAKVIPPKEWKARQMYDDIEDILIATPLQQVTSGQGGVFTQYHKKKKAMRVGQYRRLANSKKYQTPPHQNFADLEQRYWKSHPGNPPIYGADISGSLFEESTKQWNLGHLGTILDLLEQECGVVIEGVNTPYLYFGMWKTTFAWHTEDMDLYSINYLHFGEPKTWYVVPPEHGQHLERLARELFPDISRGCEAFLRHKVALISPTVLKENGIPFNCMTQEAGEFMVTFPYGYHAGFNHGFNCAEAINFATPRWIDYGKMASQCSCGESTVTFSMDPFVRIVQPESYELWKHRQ

JMJD2E = target: T3, JMJD2E (Homo sapiens, UniProt B2RXH2); experiment: JMJD2E FDH-coupled assay under low and high iron conditions (iron chelation profile); design: The catalytic domain of human JMJD2E (residues 1–337); His6 (N); made in house; host or cells: E. coli; settings: 25 and 2.5 µM Fe(II)
T3 sequence (B2RXH2 1-337): T2 sequence (B2RXH2 1-337)
Description: The prioritized compounds were also evaluated in the screening assay using two different ferrous ion concentrations (termed high iron and low iron, respectively), in order to assess their propensity for iron chelation.
The ratio of IC50 values under high iron to low iron was calculated for each compound.

[2] = Table S1, FDH counterscreen, unit not in table, from Figure 2, read-out: qHTS Data: jmjd2e fdh IC50
[3] = Figure 3, substituted 8-hydroxyquinolines against JMJD2E, read-out: IC50 /μM (qHTS IC50, FDH-coupled assay)

T1 sequence (P46154 whole entry): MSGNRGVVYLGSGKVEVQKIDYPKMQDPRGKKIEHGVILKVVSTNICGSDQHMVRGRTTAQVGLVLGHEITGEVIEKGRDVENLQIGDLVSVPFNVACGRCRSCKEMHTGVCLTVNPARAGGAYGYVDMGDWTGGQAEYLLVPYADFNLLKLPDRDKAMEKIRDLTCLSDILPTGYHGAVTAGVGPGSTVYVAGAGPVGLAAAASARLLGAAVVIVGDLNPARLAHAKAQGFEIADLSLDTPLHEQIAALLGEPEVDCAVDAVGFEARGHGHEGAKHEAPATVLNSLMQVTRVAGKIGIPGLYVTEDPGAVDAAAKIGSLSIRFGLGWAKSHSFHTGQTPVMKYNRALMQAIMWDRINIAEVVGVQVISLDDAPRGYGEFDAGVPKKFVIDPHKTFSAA

SMILES | qHTS Data: jmjd2e fdh CurveClass ([1]; Table S1, FDH counterscreen) | further results
Cc1ccc(SCCCCN2CCNCC2)cc1.O=C(O)C(=O)O [compound 17504558] | Inactive | 
O=C(CN1CCCCCC1)NCC1CCCO1.O=C(O)C(=O)O (stereo not drawn) [compound 24790169] | Inactive | 
CC(CCc1ccccc1)NC(=O)CN1CCN(c2ccc(O)cc2)CC1 (stereo not drawn) [compound 24833440] | Inactive | 
S=c1nc(C2COc3ccccc3O2)[nH][nH]1 (stereo not drawn) [compound 24801312] | -1.3 | IC50 [1, 2]: 15.8 µM
Oc1c(CN2CCCC2)cc(COCc2ccccc2)c2cccnc12 [compound 85736312] |  | IC50 (JMJD2E (KDM4E); [3]): 5 µM
CC1(OC(=O)C2CCCC2)C(=O)C=C2C=C(c3ccsc3)N(CCc3ccccn3)C=C2C1=O (stereo not drawn) [compound 26725362] | Inactive | 
Cc1cccc(NCc2ccc(O)c3ncccc23)c1 [compound 24790252] | Inactive | 
O=C(O)c1ccnc2c(O)cccc12 [SID 85736397, 4-carboxy-8-hydroxyquinoline] |  | IC50 (JMJD2E (KDM4E); FDH coupled assay, read-out: IC50 against JMJD2E): 2 µM; IC50 (JMJD2E (KDM4E); [3]): 2.0 µM
O=C(O)C(=O)O.c1cc(CN2CCN(C3CCCCCC3)CC2)ccn1 [compound 24817627] | Inactive | 
CN(C)c1cc(N/N=C/c2ccc(Cl)cc2)nc(N(C)C)n1 [compound 24813304] | Poor quality curve | IC50 [1, 2]: 14.1 µM
CCCCn1c(=O)[nH]c2nc3cc(NC(C)=O)ccc3nc2c1=O [compound 26671554] |  | IC50 [1, 2]: 11.2 µM
COC(=O)CCC(=O)OC1(C)C(=O)C=C2C=C(C3CC3)N(CCc3ccccn3)C=C2C1=O (stereo not drawn) [compound 26725368] | Inactive | 
Cc1cc(N(C)/N=C/c2ccccc2)nc(-c2ccccc2O)n1 [compound 24801833] |  | IC50 [1, 2]: 39.8 µM
COc1cccc(CN2CCN(C(=O)c3ccc(-c4ccccc4)cc3)CC2)c1OC.O=C(O)C(=O)O [compound 24807835] | Inactive | 
Oc1cccc2ccc(/C=C/c3cccs3)nc12 [compound 14734630] |  | IC50 (JMJD2E (KDM4E); [3]): > 39 µM
CC1=C(C(N)=O)C(c2ccc3c(c2)OCO3)n2nc(-c3cccc(C)c3)nc2N1 (stereo not drawn) [compound 4245376] | Inactive | 
FC(F)(F)c1ccccc1CN1CCN(C2CCCCCC2)CC1.O=C(O)C(=O)O [compound 22403162] | Inactive | 
Cc1noc(C)c1C(=O)NNc1ccc(C(C)C)cc1 [compound 26728365] | Inactive | 
Oc1ccc(COCc2ccccc2)c2cccnc12 [compound 848472] |  | IC50 (JMJD2E (KDM4E); [3]): 36 µM
O=C(Cc1ccccc1)N1CCN(Cc2ccccn2)CC1 [SID 4263376] |  | IC50 ([1]; IC50 values in μM, FDH, Figure 2, 0.025 U/mL FDH, 10 µM formaldehyde): > 57 µM
C/C(Cn1nnc([N+](=O)[O-])n1)=N\NC(=O)c1ccc(O)cc1O [compound 22414653] | Inactive | 
Cc1nc(NC(=O)c2oc3ccccc3c2C)sc1C(=O)N(C)C [compound 4262050] | Poor quality curve | 
O=C(O)CN(CCN(CC(=O)O)CC(=O)O)CC(=O)O [EDTA, reference compound] |  | ratio of IC50 values under high iron to low iron (JMJD2E): 5.9
CC1(OC(=O)CCc2ccccc2)C(=O)C=C2C=C(c3ccc(C#N)cc3)N(C3CC3)C=C2C1=O (stereo not drawn) [SID 26725552] |  | IC50 ([1]; Figure 2, 0.025 U/mL FDH, 10 µM formaldehyde, read-out: IC50 values in μM, FDH): > 57 µM
Cc1cccc(N2C(=O)CC(Sc3ncn[nH]3)C2=O)c1 (stereo not drawn) [compound 24809940] |  | IC50 [1, 2]: 0.28 µM
Oc1cccc2ccc(/C=C/c3c(F)cccc3Cl)nc12 [compound 24793399] |  | IC50 (JMJD2E (KDM4E); [3]): 28 µM
CCNc1nc(C(=O)O)nc(N2CCOCC2)n1 [compound 24789924] | Inactive | 
CC1CCN(CC(=O)NCCc2ccc(F)cc2)CC1.O=C(O)C(=O)O [compound 24804760] | Poor quality curve | 
O=C(CN1CCN(c2ncccn2)CC1)N1CCCC1.O=C(O)C(=O)O [compound 24790164] | Inactive | 
Oc1ccc(CNc2cccc(C(F)(F)F)c2)c2cccnc12 [compound 50122416] |  | IC50 (JMJD2E (KDM4E); [3]): 7.9 µM
